This note sets out measurements from ChEMBL document CHEMBL1255481, “The M230L nonnucleoside reverse transcriptase inhibitor resistance mutation in HIV-1 reverse transcriptase impairs enzymatic function and viral replicative capacity” (Antimicrob Agents Chemother, 2010).

Assay [1] concerns Human immunodeficiency virus 1. The experiment in a line: Antiviral activity against HIV 1 subtype B harboring wild type reverse transcriptase infected in human TZM-bl cells assessed as inhibition of viral growth by luciferase reporter gene assay. As to conditions: Human immunodeficiency virus 1, subtype B. The assay is classed as functional, organism-based.
Assay [2] relates to Human immunodeficiency virus 1. Kind of assay: Antiviral activity against HIV 1 subtype B harboring reverse transcriptase M230L mutant infected in human TZM-bl cells assessed as inhibition of viral growth by luciferase reporter gene assay. The assay is classed as functional, organism-based. As to conditions: Human immunodeficiency virus 1, subtype B.
Assay [3] deals with T1, Human immunodeficiency virus type 1 reverse transcriptase (Human immunodeficiency virus 1, UniProt Q72547). Kind of assay: Inhibition of RNA-dependent DNA polymerase activity of wild type HIV1 subtype B reverse transcriptase by filter-based filtration assay.
The target of assay [4] is T2, Human immunodeficiency virus type 1 reverse transcriptase (Human immunodeficiency virus 1, UniProt Q72547, M230L). The experiment in a line: Inhibition of RNA-dependent DNA polymerase activity of HIV1 subtype B reverse transcriptase M230L mutant by filter-based filtration assay.
Assay [5] deals with Human immunodeficiency virus 1. The experiment in a line: Selectivity ratio of IC50 for RNA-dependent DNA polymerase activity of HIV1 subtype B reverse transcriptase M230L mutant to IC50 for RNA-dependent DNA polymerase activity of wild type HIV1 subtype B reverse transcriptase.
Assay [6] has as its target T1, Human immunodeficiency virus type 1 reverse transcriptase. The experiment in a line: Inhibition of DNA-dependent DNA polymerase activity of wild type HIV1 subtype B reverse transcriptase by gel-based primer extension assay.
Assay [7] has as its target T2, Human immunodeficiency virus type 1 reverse transcriptase. Kind of assay: Inhibition of DNA-dependent DNA polymerase activity of HIV1 subtype B reverse transcriptase M230L mutant by gel-based primer extension assay.
Assay [8] concerns Human immunodeficiency virus 1. Kind of assay: Selectivity ratio of IC50 for DNA-dependent DNA polymerase activity of HIV1 subtype B reverse transcriptase M230L mutant to IC50 for DNA-dependent DNA polymerase activity of wild type HIV1 subtype B reverse transcriptase.
Assay [9] has as its system Human immunodeficiency virus 1. The experiment in a line: Selectivity ratio of EC50 for antiviral activity against HIV 1 subtype B harboring reverse transcriptase M230L mutant to EC50 for antiviral activity against HIV 1 subtype B harboring wild type reverse transcriptase. Format: functional.

The structures appear in SMILES notation.

Regarding `O=C1Nc2ccc(Cl)cc2[C@@](C#CC2CC2)(C(F)(F)F)O1` [EFAVIRENZ], the results for the EC50 in [1] and in [2] were 3.57 nM and 64.3 nM, respectively.

For the compound `Cc1cc(C)c(Nc2ccnc(Nc3ccc(C#N)cc3)n2)c(C)c1` [DAPIVIRINE], the IC50 amounted to 19 nM in assay [3], 172 nM in assay [4], 131 nM in assay [6] and 1290 nM in assay [7]. For the same compound, the Selectivity ratio in [5] was found to be 9.1; in assay [8] it was 9.9; in assay [9], 6.4. Further, the EC50 worked out at 0.91 nM in [1] and 5.8 nM in assay [2].

With `Cc1ccnc2c1NC(=O)c1cccnc1N2C1CC1` [NEVIRAPINE], the EC50 was determined as 163 nM in [1] and 2690 nM in assay [2].

Take `Cc1cc(C#N)cc(C)c1Oc1nc(Nc2ccc(C#N)cc2)nc(N)c1Br` [ETRAVIRINE]: the EC50 in [1] amounted to 1.25 nM; in assay [2], 7.27 nM.
